Experimental data taken from patent US4469786A (priority 1981, dated 1984).

Key:
[1] = system: single-stranded .phi.105 DNA
DNA [2] = conditions: cited from earlier work
[3] = system: Salmonella tester strains; conditions: literature (McCann, Bartsch, Glatt); cited from earlier work
DNA [4] = conditions: transformation-based assay of Phillips et al.; cited from earlier work
[5] = system: replicative-form .phi.105DII:6C DNA; assay: gene linkage disruption in the marker rescue assay with .phi.105DII:6C DNA; conditions: PO, same conditions as Example 5 (25 to 100 mM)

CC(=O)ON(C(C)=O)c1ccc2c(c1)Cc1ccccc1-2 [AAAF, N-acetyl-N-acetoxy-2-aminofluorine]
frequency of clear PFU, earliest sample [1]: there appeared to be an increase in the frequency of clear PFU
marker rescue activity, subsequent samples [1]: very rapid and extensive loss of marker rescue activity
numbers of clear-plaque mutants generated ([1]; 35 mM AAAF, 37° C., 1-9 min., Hcr^+ recipient GB68, FIG. 6): increased with length of AAAF treatment
frequency of clear-plaque mutants, subsequent samples ([1]; 35 mM AAAF, 37° C., subsequent samples, Hcr^- recipient GB7075): concomitant decrease in the frequency of clear-plaque mutants
lesion in DNA / reactivity with DNA (DNA [2]): potent frameshift mutagen which forms two different guanine adducts

O=CCCl [CAA, chloroacetaldehyde]
lesion in DNA / reactivity with DNA (DNA [2]): reacts with adenines and cytosines to form imidazonucleoside derivatives

ClC(Cl)(Cl)Cl [CCl4]
mutagenicity in the Ames assay [3]: not mutagenic in the Ames assay

ClC(Cl)Cl [CHCl3]
mutagenicity in the Ames assay [3]: not mutagenic in the Ames assay

ClC(Cl)=C(c1ccc(Cl)cc1)c1ccc(Cl)cc1 [DDE]
mutagenicity in the Ames assay [3]: not mutagenic in the Ames assay

NO [HA, hydroxylamine]
marker rescue activity [1]: loss of marker rescue activity
frequency of clear PFU/total PFU (capacity of treated DNA to generate clear-plaque mutants) ([1]; 1M HA, single-stranded DNA, 45° C., 0-60 minutes, GB68, FIG. 2): A time dependent increase in the capacity of the treated DNA to generate clear-plaque mutants
lesion in DNA / reactivity with DNA (DNA [2]): induces predominantly guanine-cytosine to adenine-thymine transitions

CC1CO1 (centres unmarked) [PO, propylene oxide]
frequency of clear PFU at the highest concentration [1]: a decrease in the frequency of clear PFU
marker rescue activity [1]: No consistent decrease in marker rescue activity
significance (p) of increase in frequency of clear PFU [1]: < 0.001
strand scission (DNA [4]): PO-induced strand scission which was observed
lesion in DNA / reactivity with DNA (DNA [2]): reacts with guanine and adenine residues but has also been claimed to react with the phosphodiester backbone of DNA producing strand scissions
disruption of linkage between J^+ allele and DII:6C mutation [5]: no significant disruption of linkage

ClC1=C(Cl)[C@]2(Cl)[C@@H]3[C@@H]4C[C@@H]([C@H]5O[C@@H]45)[C@@H]3[C@@]1(Cl)C2(Cl)Cl [dieldrin]
mutagenicity in the Ames assay [3]: not mutagenic in the Ames assay

CC/C(=C(/CC)c1ccc(O)cc1)c1ccc(O)cc1 [diethylstilbestrol]
mutagenicity in the Ames assay [3]: not mutagenic in the Ames assay
